Experimental data reported in publication PMC12684391, “Mechanistic insights into the monotherapy and combination potential of FEN1 inhibition in cancer therapy” (Nucleic Acids Research, 2025).

Assays:
FEN1 = target: T1, FEN1 (Homo sapiens, UniProt P39748); test: Fluorescence-based 5′-flap cleavage assay of FEN1 nuclease activity; type: biochemical
T1 construct: Full-length FEN1 (1-380) was expressed in Escherichia coli; 6His; made in house; host or cells: Escherichia coli
Experimental: MSC778 was dissolved in dimethyl sulphoxide (DMSO) to give a 10 mM stock. FEN1/EXO1: compound was dispensed into black 384-shallow well microplates (Greiner #784076). The compound was dispensed as an 11-point dose response with a 3-fold serial dilution from a top concentration of 10 mM (to give a final in-assay concentration of 100 µM). GEN1/XPG: MSC778 was dispensed into black 1536-well plates (Greiner #782076). The compound was dispensed as a 20-point dose response with a 3-fold serial dilution from a top concentration of 10 mM (to give a final in-assay concentration of 100 µM). The volume of DMSO was adjusted to ensure that each well contained 1% (v/v) DMSO in the final assay. […]
5 µl (FEN1/EXO1) or 3 µl per well (GEN1/XPG) of stop buffer (20 mM Tris pH 7.5, 300 mM EDTA) was added to all wells, then the plates were read on the CLARIOstar Plus (BMG LABTECH Ltd.) using the Fluorescein (FITC) wavelengths (Ex 483 ± 14, Em 530 ± 30, Dichroic auto/502.5) and auto focal height/gain settings.
All data analysis was carried out using Genedata Screener software. IC50 values were calculated using the SmartFit function.
A fluorescence-based 5′-flap cleavage assay, in which quenching of the fluorescence of a fluorescein amidite (FAM) moiety is alleviated by nucleolytic cleavage, was used to measure the nuclease activity of FEN1 (Fig. 1B and Supplementary Fig. S1A). […]

NanoLuc-FEN1 = target: T2, NanoLuc-FEN1 (Homo sapiens, UniProt P39748); test: NanoBRET cellular target engagement assay in HEK-293 cells; type: cell-based; conditions: more potent than MSC781
T2 construct: host or cells: HEK-293
Experimental: The NanoBRET™ assay was set-up and performed by Promega, Madison, USA [40]. The tracer compound (“tracer 6”) was synthesized based on an in-house compound. A NanoLuc®-FEN1 expression plasmid was transiently transfected into HEK-293 cells and 20 µl of subsequent cell/DNA suspension dispensed into wells of 384-well assay plates. Tracer 6 (final concentration 125 nM) and test compounds (10 step 1:3 dilution from a top concentration of 10 µM) in 100% DMSO were dispensed with a Echo Labcyte (Beckman Coulter) in technical duplicates.
To induce NanoLuc activity, 10 µl of 3× detection substrate NanoBRET™ Nano-GLO® Live Cell Solution in OptiMEM with digitonin (final concentration 150 µg/ml) were added per well. Kinetics were followed by luminescence multimode reader (DonorEm 450nm/AcceptorEm 610 nm) for 1 h. BRET ratios were calculated and resulting mBRET values were graphed versus compound concentrations and fitted to a nonlinear regression curve (four parameters) to determine IC50 values.
In this assay, NanoBRET occurs between a fluorescent moiety (acceptor) on a tracer molecule and the NanoLuc tag (donor) on FEN1 that are in close proximity.

[1] = system: DLD-1, DLD-1 BRCA2KO, SUM149PT, MDA-MB-436 cells; test: Flow cytometric analysis of apoptosis (annexin V/PI); type: cell-based; conditions: 1 μM, 72 h
Experimental: (§1) Apoptosis was measured using annexin V and propidium iodide (PI) staining using an Annexin V-fluorescein isothiocyanate (FITC) apoptosis detection kit (Thermo Fisher Scientific, V13242) according to manufacturer’s instructions.
(§2) Briefly, cells were cultured in six-well plates and treated with FEN1 inhibitor at indicated concentrations for 72 h. The supernatant and adherent cells were collected and washed twice with ice-cold PBS, then re-suspended in 100 µl of 1× binding buffer. Annexin V-FITC conjugate (5 µl) and PI (1 µl) were added, and the cells were incubated at room temperature for 15 min in the dark. After addition of 300 µl of 1× binding buffer, the cells were analyzed using a flow cytometer (CytoFLEX, Beckman).

[2] = system: EWS cells (MHH-ES-1, RD-ES); test: as above; type: cell-based; conditions: 0.1 μM, 72 h
Experimental: as §1, §2

U-2 OS cells = test: as above; type: cell-based; conditions: 0.1 μM, 72 h
Experimental: as §1, §2

DLD-1 cells = test: Cell viability assay (AlamarBlue), 7 days; type: cell-based; conditions: Homo sapiens, 168 h, DLD-1 wild-type, N = 3
Experimental: Cells were seeded in 96-well plates and treated the day after seeding with a serial dilution of compounds in technical duplicates. After 7 days, viability was analyzed using the AlamarBlue reagent (BioRad). AlamarBlue was added in an amount equal to 10% of the volume in the well and after a 4–6 h incubation viability was determined by fluorescence analysis using a standard plate reader. Fluorescence was normalized to vehicle treated control for each cell line, and data were fitted in Genedata Screener to generate compound sensitivity curves and determine IC50 or EC50 (half maximal inhibitory/effective concentration) values as indicated.

T1 sequence (P39748 whole entry): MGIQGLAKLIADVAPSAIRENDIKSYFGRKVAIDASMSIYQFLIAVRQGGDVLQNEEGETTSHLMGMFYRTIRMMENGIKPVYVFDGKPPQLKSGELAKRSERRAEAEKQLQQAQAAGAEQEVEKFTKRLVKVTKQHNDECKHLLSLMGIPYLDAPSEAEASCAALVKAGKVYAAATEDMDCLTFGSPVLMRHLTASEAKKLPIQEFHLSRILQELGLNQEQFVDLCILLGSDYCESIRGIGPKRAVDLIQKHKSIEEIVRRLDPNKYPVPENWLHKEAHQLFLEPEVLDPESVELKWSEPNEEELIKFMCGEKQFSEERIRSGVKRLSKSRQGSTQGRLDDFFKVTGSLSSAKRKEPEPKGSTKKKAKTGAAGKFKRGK
T2 sequence (P39748 whole entry): as above

Potency on FEN1 nuclease activity relative to MSC781 (FEN1; more potent than MSC781): 16 fold
IC50 (FEN1; n = 3, SD = 0.14, cognate 5′ flap substrate): 0.0032 µM
NanoBRET potency relative to MSC781 (NanoLuc-FEN1): 23 fold
EC50 (DLD-1 cells): 2.3 µM
SMILES: C[C@H](Oc1nn2c(c(O)c1=O)C(=O)N1CCOC[C@@H]1C2)c1ccc2ccc(Cl)cc2c1 [MSC778]
Induction of cell death [1]: induced cell death by apoptosis
Induction of cell death [2]: induced apoptotic cell death
Induction of apoptotic cell death (U-2 OS cells): not
